The results in this text go back to ChEMBL document CHEMBL1141009, “Synthesis of BODIPY-labeled alkylphosphocholines with leishmanicidal activity, as fluorescent analogues of miltefosine” (2008).

The assay concerns Leishmania donovani. As to the kind of experiment: Antileishmanial activity against Leishmania donovani promastigotes. The format is functional. As to conditions: read-out: LD50 (the source's name).
In the case of `CCC1=C(C)C2=Cc3c(C)c(CCCCCCCCCCCOP(=O)([O-])OCC[N+](C)(C)C)c(C)n3[B-](F)(F)[N+]2=C1C`, the LC50 worked out at 4.3 µM. The figure for `CC1=CC(C)=[N+]2C1=Cc1c(C)c(CCCCCCCCCCCOP(=O)([O-])OCC[N+](C)(C)C)c(C)n1[B-]2(F)F` is 5.2 µM. The figure for `CCCCCCCCCCCCCCCCOP(=O)([O-])OCC[N+](C)(C)C` [MILTEFOSINE] is 6.5 µM.
